Peptide text beside a SMILES is read from it. * marks the point of attachment. 5FAM = O=C1OC2(c3ccc(O)cc3Oc3cc(O)ccc32)c2ccc(C(=O)*)cc21; Ahx = NCCCCCC(=O)O
How the values were obtained:
PCNA [1] = target: T1, PCNA (Homo sapiens, UniProt P12004); assay: Fluorescence polarization competition assay (displacement of FAM-PL from His-tagged PCNA); format: binding; settings: for Disruption of PCNA-PL peptide binding by individual fragments: individual peptoid fragments screened alone, dose response (FIG. 7); for Ki: calculated from IC50 using equation 5 (modified Cheng-Prusoff), 95% confidence interval around the mean; for IC50: disruption of PCNA / FAM-PL binding, values are 95% confidence interval around the mean
T1 construct: made in house; host or cells: E. coli BL21 (DE3)
Experimental: The inclusion of PCNA was included in the overall calculations of Ki values.
Anisotropy was converted to fractional occupancy, and IC50 values were determined for each peptoid by performing non-linear regression fits of each dose response curve using equation 4. Inhibition constants (Ki values) were calculated from the resultant IC50 values using equation 5 (Table 2).
Fluorescence Polarization Competition Assay. […] The plate was allowed to incubate at room temperature in the dark for 30 minutes prior to fluorescent measurement. […] Anisotropy values were converted to fractional occupancy using equation 2, and IC50 values were calculated by fitting the data to equation 4:
[formula] wherein n is the Hill slope.

PCNA [2] = target: T1, PCNA; assay: Fluorescence polarization binding assay (PCNA titration for affinity of FAM-PL); settings: fixed FAM-PL (5 nM), two-fold increasing recombinant His-tagged PCNA, non-linear regression; read-out: Kd of FAM-PL peptide for PCNA
Experimental: After synthesis and purification, peptoids were screened in a fluorescence polarization (FP) assay to find ligands that disrupted the interaction between His-tagged PCNA and fluorescein-labeled Pogo Ligase peptide (FAM-PL) (Kontopidis, G., et al. Proc. Natl. Acad. Sci. U.S.A 2005, 102 (6), 1871-1876). In the design of the assay, conditions were adopted from Pedley et al., 2016, to improve the dynamic range between bound and unbound FAM-PL. While an acceptable Z-score was determined using the original 10 nM peptide and 100 nM PCNA (FIG. 4), an improved dynamic range was established by adjusting the ligand and receptor concentrations. […] Because more than 80% of the peptide was bound at a PCNA concentration of […] this protein-receptor concentration was selected for use in subsequent displacement assays. The inclusion of PCNA was included in the overall calculations of Ki values.
Fluorescence Polarization Binding Assay. […] Fluorescence polarization and resultant anisotropy were measured on a BioTek Synergy 4 Multi-Detection Microplate Reader using an excitation filter of 485 nm and an emission filter of 530 nm, each with a 20 nm band-pass. […]
FO values were analyzed using non-linear regression statistics in OriginPro 2015, representing them as the mean±standard error of the mean (Y), and plotting them as a function of the monomeric PCNA protein concentration (X). […]

T1 sequence (P12004 with tags, fused parts or gaps): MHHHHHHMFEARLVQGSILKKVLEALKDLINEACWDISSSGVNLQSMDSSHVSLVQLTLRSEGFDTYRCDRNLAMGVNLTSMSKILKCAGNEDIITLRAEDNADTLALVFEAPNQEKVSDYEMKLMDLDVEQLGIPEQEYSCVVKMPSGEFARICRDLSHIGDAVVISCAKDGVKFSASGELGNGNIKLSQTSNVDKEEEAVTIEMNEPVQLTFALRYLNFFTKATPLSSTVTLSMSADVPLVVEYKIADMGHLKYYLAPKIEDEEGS

Ki (PCNA [1]) [nM]	IC50 (PCNA [1]) [µM]	Kd (PCNA [2]) [nM]	Structure (SMILES)	Disruption of PCNA-PL peptide binding by individual fragments (PCNA [1])
–	–	–	NCCO [NEal, ethanol amine]	none of the fragments showed any evidence of inhibition
1240 ± 190	12.9 ± 1.97	–	NCCCCNCC(=O)N(CC(=O)N(CC(N)=O)Cc1ccc(CN)cc1)Cc1ccc2c(c1)OCO2 [NLys-NPip-NMma]	–
–	–	–	CC(C)(C)OC(=O)c1ccc(CN)cc1 [NBza]	none of the fragments showed any evidence of inhibition
–	–	107	CC[C@H](C)[C@H](NC(=O)[C@H](CCCCN)NC(=O)[C@H](CCCCN)NC(=O)[C@H](CCC(N)=O)NC(=O)[C@H](CC(C)C)NC(=O)[C@@H](NC(=O)[C@H](C)NC(=O)[C@H](CO)NC(=O)CCCCCNC(=O)c1ccc2c(c1)C(=O)OC21c2ccc(O)cc2Oc2cc(O)ccc21)C(C)C)C(=O)N[C@H](C(=O)N[C@@H](CC(=O)O)C(=O)N[C@@H](Cc1ccc(O)cc1)C(=O)N[C@@H](Cc1ccccc1)C(=O)N[C@@H](Cc1c[nH]cn1)C(=O)N1CCC[C@H]1C(=O)N[C@@H](CCCCN)C(=O)N[C@@H](CCCCN)C(N)=O)[C@@H](C)O [FAM-PL] ({5FAM-Ahx}-SAVLQKKITDYFHPKK-NH2)	–
114 ± 23.1	1.18 ± 0.24	–	NCc1ccc(CN(CC(N)=O)C(=O)CN(CCO)C(=O)CN[C@H](CO)Cc2cc(I)c(Oc3ccc(O)cc3)c(I)c2)cc1 [T2AA-NEal-NMma]	–
–	–	–	CC(C)(C)[Si](C)(C)OCc1ccc(CN)cc1 [NBal]	none of the fragments showed any evidence of inhibition
1120 ± 245	11.7 ± 2.55	–	NCc1ccc(CNCC(=O)N(CC(=O)N(CC(N)=O)Cc2ccc(CO)cc2)Cc2ccc3c(c2)OCO3)cc1 [NMma-NPip-NBal]	–

— US11400130B2, “Inhibitors for proliferating cell nuclear antigen and uses” (Purdue Research Foundation, priority 2015, dated 2022)
